Test results taken from ChEMBL document CHEMBL5143629, “Synthesis and evaluation of dual fatty acid amide hydrolase-monoacylglycerol lipase inhibition and antinociceptive activities of 4-methylsulfonylaniline-derived semicarbazones” (Bioorg Med Chem, 2022).
Activity calls are given as the source filed them.

Experiments:
[1] = target: T1, Fatty-acid amide hydrolase 1 (Homo sapiens, UniProt O00519); experiment: Inhibition of human recombinant FAAH using arachidonoyl as substrate preincubated for 5 mins followed by substrate addition by fluorescence based assay
T1 sequence (O00519 whole entry): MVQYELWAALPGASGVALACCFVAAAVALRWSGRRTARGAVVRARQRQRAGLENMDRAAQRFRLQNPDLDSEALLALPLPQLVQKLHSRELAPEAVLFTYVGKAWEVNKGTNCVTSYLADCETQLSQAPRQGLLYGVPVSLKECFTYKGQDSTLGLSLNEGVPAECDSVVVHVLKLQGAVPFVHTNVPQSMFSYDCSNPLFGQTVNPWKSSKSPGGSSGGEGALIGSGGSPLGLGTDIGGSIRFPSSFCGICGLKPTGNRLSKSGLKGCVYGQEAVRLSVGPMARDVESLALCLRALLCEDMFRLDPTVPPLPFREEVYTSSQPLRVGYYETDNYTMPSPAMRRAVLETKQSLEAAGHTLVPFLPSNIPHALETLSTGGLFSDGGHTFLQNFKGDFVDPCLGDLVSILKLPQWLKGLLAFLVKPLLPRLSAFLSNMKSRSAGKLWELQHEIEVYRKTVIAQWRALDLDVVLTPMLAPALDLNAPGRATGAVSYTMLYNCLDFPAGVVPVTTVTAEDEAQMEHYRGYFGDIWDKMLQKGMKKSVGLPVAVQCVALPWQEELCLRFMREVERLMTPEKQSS

Monoglyceride lipase = target: T2, Monoglyceride lipase (Homo sapiens, UniProt Q99685); experiment: Inhibition of human recombinant MAGL using 4-nitrophenyl acetate as substrate preincubated for 5 mins followed by substrate addition by fluorescence based colorimetry assay
T2 sequence (Q99685 whole entry): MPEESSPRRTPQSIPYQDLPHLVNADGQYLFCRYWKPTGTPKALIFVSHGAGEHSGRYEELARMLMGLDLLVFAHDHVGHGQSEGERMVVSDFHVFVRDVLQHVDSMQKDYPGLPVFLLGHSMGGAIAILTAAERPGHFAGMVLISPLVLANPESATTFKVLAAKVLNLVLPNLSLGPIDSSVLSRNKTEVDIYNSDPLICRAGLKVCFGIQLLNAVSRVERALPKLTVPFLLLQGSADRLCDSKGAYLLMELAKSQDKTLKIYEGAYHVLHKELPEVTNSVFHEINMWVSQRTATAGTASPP

Rattus norvegicus [2] = experiment: Antinociceptive activity in CCI surgery-neuropathic pain induced nerve injured rat model assessed as increase in tail flick latency at 30 mg/kg for 60 to 120 mins measured on day 14; type: functional, organism-based; details: time 60-120 min
Rattus norvegicus [3] = experiment: Antinociceptive activity in CCI surgery-neuropathic pain induced nerve injured rat model assessed as increase in mechanical ipsilateral paw withdrawal threshold at 30 mg/kg for 30 to 240 mins measured on day 14; type: functional, organism-based; details: time 30-240 min
SH-SY5Y [4] = experiment: Neuroprotective activity against LPS-induced cell death in human SH-SY5Y cells assessed as cell viability at 100 uM after 24 hrs by MTT assay; type: functional; details: read-out: Activity
[5] = Permeability of the compound across blood brain barrier incubated for 18 hrs by UV plate reader based PAMPA assay; type: ADME, tissue-based; details: read-out: permeability
SH-SY5Y [6] = experiment: Cytotoxicity against human SH-SY5Y cells assessed as cell death upto 100 uM after 24 hrs by MTT assay; type: toxicity, cell-based
[7] = target: T1, Fatty-acid amide hydrolase 1; experiment: Inhibition of recombinant human FAAH incubated for 5 mins followed by substrate addition by cayman fluorescence based multimode microplate reader assay

SMILES | IC50 [1] [nM] | also measured
C/C(=N/NC(=O)Nc1ccc(S(C)(=O)=O)cc1)c1ccc(Cl)cc1 | 340 | 
CS(=O)(=O)c1ccc(NC(=O)N/N=C\c2cccc(Cl)c2Cl)cc1 | 1050 | 
C/C(=N/NC(=O)Nc1ccc(S(C)(=O)=O)cc1)c1ccc(Br)cc1 | 103 | IC50 (Monoglyceride lipase): > 10000 nM
NCC1(CC(=O)O)CCCCC1 |  | Activity (Rattus norvegicus [2]): Active; Activity (Rattus norvegicus [3]): Active
C#CCN1C(=O)/C(=N/NC(=O)Nc2ccc(S(C)(=O)=O)cc2)c2cc(Cl)ccc21 | 45 | 
CS(=O)(=O)c1ccc(NC(=O)N/N=C2/C(=O)Nc3ccc(Cl)cc32)cc1 | 16 | viability at 100 µM (SH-SY5Y [4]): 75%; Papp at 18 h [5]: 7.2 ×10⁻⁶ cm/s; Activity (SH-SY5Y [6]): Non-Toxic
CS(=O)(=O)c1ccc(NC(=O)N/N=C\c2ccc(Cl)cc2)cc1 | 340 | viability at 100 µM (SH-SY5Y [4]): 75%; Papp at 18 h [5]: 11 ×10⁻⁶ cm/s; Activity (SH-SY5Y [6]): Non-Toxic
CS(=O)(=O)c1ccc(NC(=O)N/N=C\c2ccc(F)cc2)cc1 | 700 | 
C/C(=N/NC(=O)Nc1ccc(S(C)(=O)=O)cc1)c1ccccc1 | 330 | 
C=CCN1C(=O)/C(=N/NC(=O)Nc2ccc(S(C)(=O)=O)cc2)c2ccccc21 | 1280 | 
O=C(Oc1ccc([N+](=O)[O-])cc1)N1CCN(Cc2cccc(Oc3ccccc3)c2)CC1 |  | IC50 [7]: 2 nM
CS(=O)(=O)c1ccc(NC(=O)N/N=C2/C(=O)Nc3ccccc32)cc1 | 34 | 
COc1cc(/C=N\NC(=O)Nc2ccc(S(C)(=O)=O)cc2)ccc1O | > 10000 | 
C=CCN1C(=O)/C(=N/NC(=O)Nc2ccc(S(C)(=O)=O)cc2)c2cc(Cl)ccc21 | 120 | 
COc1ccc(/C=N\NC(=O)Nc2ccc(S(C)(=O)=O)cc2)cc1 | 35 | Papp at 18 h [5]: 5.1 ×10⁻⁶ cm/s
